Data from ChEMBL document CHEMBL1151783 (Bioorg Med Chem Lett, 2008).
Converted amounts (≈) assume the structure as drawn. The source made the active and inactive calls. No cut-off for these calls is given here.

Experiments:
Vero [1] = test: Cell cycle arrest in african green monkey Vero cells assessed as accumulation at G2/M phase after 18 hrs by flow cytometry using propidium iodide staining; type: functional, cell-based; conditions: Chlorocebus sabaeus
[2] = Binding affinity to bovine tubulin after 2 hrs by fluorescence polarization assay; set-up: species or system Bos taurus
HeLa = test: Cytotoxicity against human HeLa cells after 48 hrs by luminescence cell viability assay; type: functional, cell-based
[3] = Solubility in phosphate buffer saline after 2 hrs; type: physicochemical; conditions: phosphate buffered saline
Vero [4] = test: Induction of apoptosis in african green monkey Vero cells assessed as caspase 3/7 activity after 18 hrs […]; type: functional, cell-based; conditions: Chlorocebus sabaeus
Bos taurus [5] = organism: Bos taurus; test: Binding affinity to bovine tubulin at 10 uM after 2 hrs by fluorescence polarization assay
Bos taurus [6] = organism: Bos taurus; test: Inhibition of bovine tubulin polymerization at 5 uM
HepG2 = test: Cytotoxicity against human HepG2 cells after 48 hrs by luminescence cell viability assay; type: functional, cell-based; conditions: HepG2, 48 h
Vero [7] = test: Cytotoxicity against african green monkey Vero cells after 48 hrs by luminescence cell viability assay; type: cell-based; conditions: Chlorocebus sabaeus
[8] = Displacement of [3H]colchicine from bovine tubulin after 2 hrs by fluorescence polarization assay; set-up: species or system Bos taurus
Raji = test: Cytotoxicity against human Raji cells after 48 hrs by luminescence cell viability assay; type: functional, cell-based
[9] = Membrane permeability by PAMPA; type: ADME; conditions: for Papp: read-out: permeability
Bos taurus [10] = organism: Bos taurus; test: Inhibition of bovine tubulin polymerization at 10 uM

Row | Structure (SMILES) | EC50 (Vero [1]) [µM] | Kd [2] [µM] | EC50 (HeLa) [µM] | solubility at 2 h [3] [µM] | EC50 (Vero [4]) [µM] | Activity (Bos taurus [5]) | Activity (Bos taurus [6]) | EC50 (HepG2) [µM] | EC50 (Vero [7]) [µM] | IC50 [8] [µM] | EC50 (Raji) [µM] | Papp [9] [×10⁻⁶ cm/s] | Activity (Bos taurus [10]) | permeability [9] [×10⁻⁶ cm/s]
1 | COc1cc2c(c(OC)c1OC)-c1ccc(OC)c(=O)cc1[C@@H](NC(=O)CCC1=[N+]3C(=Cc4cccn4[B-]3(F)F)C=C1)CC2 | 0.96 | 5.8 | 0.36 | 32 (≈ 19.3 µg/mL) | 2.6 | Active | Active | 0.18 | 2.3 | 3.9 | 0.138 | 108 | – | –
2 | CC(=O)O[C@H]1C(=O)[C@@]2(C)[C@H]([C@H](OC(=O)c3ccccc3)[C@]3(O)C[C@H](OC(=O)[C@H](O)[C@@H](NC(=O)c4ccccc4)c4ccccc4)C(C)=C1C3(C)C)[C@]1(OC(C)=O)CO[C@@H]1C[C@@H]2O | – | – | – | – | – | – | – | – | – | – | – | – | inactive | –
3 | COc1cc2c(c(OC)c1OC)-c1ccc(OC)c(=O)cc1[C@@H](NC(C)=O)CC2 [COLCHICINE] | – | – | – | > 250 | – | – | Active | – | – | – | – | – | – | 415
4 | COc1cc2c(c(OC)c1OC)-c1ccc(OC)c(=O)cc1[C@@H](NC(=O)CCCCCNC(=O)COc1ccc(/C=C/C3=[N+]4C(=Cc5ccc(-c6ccc[nH]6)n5[B-]4(F)F)C=C3)cc1)CC2 | 6.8 | 7.6 | 1.9 | < 10 | 10.5 | – | Active | 1.2 | > 10 | 6.4 | 0.65 | < 10 | – | –
